According to patent US20110306580A1 (DONG WHA PHARMACEUTICAL CO ., LTD., priority 2009, published 2011):

How the values were obtained:
ROS17/2.8 cells [1] = assay: Cell growth of ROS17/2.8 cells by BrdU uptake (Cell Proliferation Biotrak ELISA); assay type: cell-based, rat; settings: for Relative index of BrdU uptake amount, Solution 3 (1α,25-dihydroxyvitamin D3 alone): 10^−4M 1α,25-dihydroxyvitamin D3 solution diluted 1000 fold; for Cell growth of ROS17/2.8 cells compared with Solution 1 (FIG. 1) / Cell growth of ROS17/2.8 cells compared with Solution 1 (FIG. 2): BrdU uptake, Dunnett multiple comparison test; for Product of relative indices of single agent addition group: Bürgi's method
Protocol: ROS17/2.8 cells were inoculated to a 96-well plate at a density of 2×10^4 cells/well. An αMEM medium to which 10% fetal calf serum had been added (referred to as the 10% FCS-αMEM, hereinafter) was used as a medium. After culture of the cells overnight, the medium was removed from each well, and an αMEM medium to which 0.5% fetal calf serum had been added (referred to as the 0.5% FCS-αMEM, hereinafter) was added. After culture of the cells for about six hours, the medium was removed from each well, and a 10% FCS-αMEM comprising DMSO and ethanol (referred to as Solution 1, hereinafter), a Compound 1 solution and ethanol (referred to as Solution 2, hereinafter), a 1α,25-dihydroxyvitamin D3 solution and DMSO (referred to as Solution 3, hereinafter) or the Compound 1 solution and the 1α,25-dihydroxyvitamin D3 solution (referred to as Solution 4, hereinafter) was added. The 10% FCS-αMEM comprising Solution 1 was prepared by diluting DMSO and ethanol by 1000 fold with the 10% FCS-αMEM. The 10% FCS-αMEM comprising Solution 2 was prepared by diluting a 10^−5M Compound 1 solution and ethanol by 1000 fold with the 10% FCS-αMEM. The 10% FCS-αMEM comprising Solution 3 was prepared by diluting a 10^−4M 1α,25-dihydroxyvitamin D3 solution and DMSO by 1000 fold with the 10% FCS-αMEM. The 10% FCS-αMEM comprising Solution 4 was prepared by diluting the 10^−5M Compound 1 solution and the 10^−4M 1α,25-dihydroxyvitamin D3 solution by 1000 fold with the 10% FCS-αMEM. After culture of the cells for about 24 hours, the effect of Compound 1 and 1α,25-dihydroxyvitamin D3 on the cell growth of the ROS17/2.8 cells was evaluated using Amersham Cell Proliferation Biotrak ELISA system, version 2 (manufactured by GE healthcare bioscience K.K., Code No. RPN250). Namely, growing cells were made take 5-bromo-2′-deoxyuridine (BrdU) into the cells, and the cells were detected by ELISA using peroxidase-labeled anti-BrdU antibodies. The amount of BrdU taken into the cells was determined by measuring absorbance (450 nm) of the solution by a microplate reader.
The BrdU uptake amount in each solution addition group was obtained in terms of a percentage to the average value of the BrdU uptake amount in four wells in a Solution 1 addition group. The graph was made using the average value±standard error of the four wells of each solution addition group.
In the Bürgi's method, the value of a standard group is […] the values of each treated group to obtain a relative index. […] If they are the same, it is determined that there is an added action. In contrast, if the value of the combination treatment group is poor, it is determined that there is an antagonistic action.
ROS17/2.8 cells were inoculated to a 96-well plate at a density of 5×10^3 cells/well. The 10% FCS-αMEM was used as a medium. After culture of the cells overnight, the medium was removed from each well, and the 0.5% FCS-αMEM was added. After culture of the cells for about six hours, the medium was removed from each well, and the 10% FCS-αMEM comprising DMSO and ethanol (referred to as Solution 1, hereinafter), a Compound 11 solution and ethanol (referred to as Solution 5, hereinafter), the 1α,25-dihydroxyvitamin D3 solution and DMSO (referred to as Solution 3, hereinafter) or the Compound 11 solution and the 1α,25-dihydroxyvitamin D3 solution (referred to as Solution 6, hereinafter) was added. The 10% FCS-αMEM comprising Solution 1 was prepared by diluting DMSO and ethanol by 1000 fold with the 10% FCS-αMEM. The 10% FCS-αMEM comprising Solution 5 was prepared by diluting a 10^−5M Compound 11 solution and ethanol by 1000 fold with the 10% FCS-αMEM. The 10% FCS-αMEM comprising Solution 3 was prepared by diluting a 10^−4M 1α,25-dihydroxyvitamin D3 solution and DMSO by 1000 fold with the 10% FCS-αMEM.

ROS17/2.8 cells [2] = assay: Cell growth of ROS17/2.8 cells by the MTT method (formed formazan); assay type: cell-based, rat
Protocol: 100 μL of a 10% FCS-αMEM comprising either DMSO and ethanol (referred to as Solution 7, hereinafter), a Test Compound solution and ethanol (referred to as Solution 8, hereinafter), a 1α,25-dihydroxyvitamin D3 solution and DMSO (referred to as Solution 9, hereinafter) or a Test Compound solution and the 1α,25-dihydroxyvitamin D3 solution (referred to as Solution 10, hereinafter) was dispensed. The ROS17/2.8 cells were inoculated to a medium at a density of 5×10^3 cells/100 μL/well. After culture of the cells for about 48 hours, the effect of Test Compound and 1α,25-dihydroxyvitamin D3 on the cell growth of the ROS17/2.8 cells was evaluated using the MTT method. Namely, after culture of the cells for about 44 hours, an MTT solution (3-[4,5-dimethylthiazol-2-yl]-2,5-diphenyltetrazolium bromide 2 mg/mL) was added in an amount of 25 μL/well, and the cells were further cultured for four hours. After the medium was removed, DMSO was added in an amount of 100 μL/well so as to dissolve the formed formazan. The amount of the formed formazan was determined by measuring the absorbance (at 560 nm) of the solution by a microplate reader.
The 10% FCS-αMEM comprising Solution 7 was prepared by diluting DMSO by 1000 fold with the 10% FCS-αMEM, and diluting ethanol by 10000 fold with the 10% FCS-αMEM. The 10% FCS-αMEM comprising Solution 8 was prepared by diluting a 2×10^−5M Test Compound solution by 1000 fold with the 10% FCS-αMEM, and diluting ethanol by 10000 fold with the 10% FCS-αMEM. The 10% FCS-αMEM comprising Solution 9 was prepared by diluting 2×10^−3M 1α,25-dihydroxyvitamin D3 solution by 10000 fold with the 10% FCS-αMEM, and diluting DMSO by 1000 fold with the 10% FCS-αMEM. The 10% FCS-αMEM comprising Solution 10 was prepared by diluting a 2×10^−5M Test Compound solution by 1000 fold with the 10% FCS-αMEM, and diluting 2×10^−3M 1α,25-dihydroxyvitamin D3 solution by 10000 fold with the 10% FCS-αMEM.
The amount of the formed formazan in each solution addition group was obtained in terms of a percentage to the average value of the amounts of formed formazan in four wells in a Solution 7 addition group. All the determined values were shown in terms of the average value±standard deviation of the four wells of each solution addition group.

[3] = amount of formed formazan, Solution 7 = 1.00

## C=C1/C(=C\C=C2/CCC[C@]3(C)[C@@H]([C@H](C)CCCC(C)(C)O)CC[C@@H]23)C[C@@H](O)C[C@@H]1O [1α,25-dihydroxyvitamin D3, reference compound]
ROS17/2.8 cells [1]; Example 1, 2×10^4 cells/well, about 24 hours, Solution 1 = 1.000
  Relative index of BrdU uptake amount, Solution 3 (1α,25-dihydroxyvitamin D3 alone): 1.220
ROS17/2.8 cells [1]; Example 1
  Cell growth of ROS17/2.8 cells compared with Solution 1 (FIG. 1): not significantly different
ROS17/2.8 cells [1]; Example 2, 5×10^3 cells/well, about 24 hours, Solution 1 = 1.000
  Relative index of BrdU uptake amount, Solution 3 (1α,25-dihydroxyvitamin D3 alone): 1.195
ROS17/2.8 cells [1]; Example 2
  Cell growth of ROS17/2.8 cells compared with Solution 1 (FIG. 2): not significantly different
ROS17/2.8 cells [2]; [3]
  Relative index of Solution 9 (1α,25-dihydroxyvitamin D3 alone): 1.05
ROS17/2.8 cells [2]; percentage to Solution 7 addition group, 2×10^−3M 1α,25-dihydroxyvitamin D3 solution diluted 10000 fold, about 48 hours, average ± standard deviation of four wells
  Amount of formed formazan, Solution 9 (1α,25-dihydroxyvitamin D3 alone): 105 ± 3.1%

## Cc1nc(-c2ccc(OCCCCCOc3ccc(/C(N)=N/O)cc3)cc2)c(C(C)C)s1 [Compound 1, N-hydroxy-4-{5-[4-(5-isopropyl-2-methyl-1,3-thiazol-4-yl)phenoxy]pentoxy}benzamidine]
ROS17/2.8 cells [1]; Example 1, 2×10^4 cells/well, 10^−5M Compound 1 solution diluted 1000 fold, about 24 hours, Solution 1 = 1.000
  Relative index of BrdU uptake amount, Solution 2 (Compound 1 alone): 1.011
ROS17/2.8 cells [1]; Example 1
  Cell growth of ROS17/2.8 cells compared with Solution 1 (FIG. 1): not significantly different
ROS17/2.8 cells [1]; Example 1, Compound 1 alone × 1α,25-dihydroxyvitamin D3 alone
  Product of relative indices of single agent addition group: 1.233

## CCCN(CCC)c1nc(-c2ccc(OCCCCCOc3ccc(/C(N)=N/O)cc3)cc2)c(CC)s1 [Compound 11, N-hydroxy-4-{5-[4-(2-dipropylamino-5-ethyl-1,3-thiazol-4-yl)phenoxy]pentoxy}benzamidine]
ROS17/2.8 cells [1]; Example 2, 5×10^3 cells/well, 10^−5M Compound 11 solution diluted 1000 fold, about 24 hours, Solution 1 = 1.000
  Relative index of BrdU uptake amount, Solution 5 (Compound 11 alone): 1.023
ROS17/2.8 cells [1]; Example 2
  Cell growth of ROS17/2.8 cells compared with Solution 1 (FIG. 2): not significantly different
ROS17/2.8 cells [1]; Example 2, Compound 11 alone × 1α,25-dihydroxyvitamin D3 alone
  Product of relative indices of single agent addition group: 1.223
ROS17/2.8 cells [2]; Rattus norvegicus, percentage to Solution 7 addition group, 2×10^−5M Test Compound solution diluted 1000 fold, about 48 hours, average ± standard deviation of four wells, read-out: Amount of formed formazan, Solution 8 (Test Compound alone)
  activity at 0.02 µM: 103 ± 2.4%
ROS17/2.8 cells [2]; Test Compound in combination with 1α,25-dihydroxyvitamin D3, amount of formed formazan, Solution 7 = 1.00
  Relative index of Solution 10 (a group of a drug combination): 1.15
ROS17/2.8 cells [2]; Test Compound in combination with 1α,25-dihydroxyvitamin D3, percentage to Solution 7 addition group, about 48 hours, average ± standard deviation of four wells
  Amount of formed formazan, Solution 10 (a group of a drug combination): 115 ± 4.4 # %
ROS17/2.8 cells [2]; [3]
  Relative index of Solution 8 (Test Compound alone): 1.03
